This is an account of results in ChEMBL document CHEMBL4665657, “2-Phenyl-8-(1-phenylallyl)-chromenone compounds have a pan-PPAR modulator pharmacophore” (Bioorg Med Chem, 2019).

Activity calls are given as the source filed them. The rule behind the calls is not given here.

For assay [1], the target named is T1, Oxysterols receptor LXR-beta (Homo sapiens) (UniProt P55055).
T1 sequence (whole entry): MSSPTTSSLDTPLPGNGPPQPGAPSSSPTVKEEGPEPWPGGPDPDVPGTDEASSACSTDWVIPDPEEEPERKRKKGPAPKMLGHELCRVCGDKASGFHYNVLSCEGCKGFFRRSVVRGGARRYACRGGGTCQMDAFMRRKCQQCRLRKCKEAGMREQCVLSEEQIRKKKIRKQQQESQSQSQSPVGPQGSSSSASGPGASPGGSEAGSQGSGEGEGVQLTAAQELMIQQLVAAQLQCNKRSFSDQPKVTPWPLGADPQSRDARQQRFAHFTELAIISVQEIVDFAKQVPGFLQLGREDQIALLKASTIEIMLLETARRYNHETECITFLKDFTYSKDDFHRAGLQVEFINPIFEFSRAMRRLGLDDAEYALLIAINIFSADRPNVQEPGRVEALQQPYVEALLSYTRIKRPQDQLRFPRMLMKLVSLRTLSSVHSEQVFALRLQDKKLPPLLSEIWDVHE
Put plainly: Transactivation of LXRbeta (unknown origin) by TR-FRET assay.

The target in assay [2] is T2, Glucocorticoid receptor (Homo sapiens) (UniProt P04150).
T2 sequence (whole entry): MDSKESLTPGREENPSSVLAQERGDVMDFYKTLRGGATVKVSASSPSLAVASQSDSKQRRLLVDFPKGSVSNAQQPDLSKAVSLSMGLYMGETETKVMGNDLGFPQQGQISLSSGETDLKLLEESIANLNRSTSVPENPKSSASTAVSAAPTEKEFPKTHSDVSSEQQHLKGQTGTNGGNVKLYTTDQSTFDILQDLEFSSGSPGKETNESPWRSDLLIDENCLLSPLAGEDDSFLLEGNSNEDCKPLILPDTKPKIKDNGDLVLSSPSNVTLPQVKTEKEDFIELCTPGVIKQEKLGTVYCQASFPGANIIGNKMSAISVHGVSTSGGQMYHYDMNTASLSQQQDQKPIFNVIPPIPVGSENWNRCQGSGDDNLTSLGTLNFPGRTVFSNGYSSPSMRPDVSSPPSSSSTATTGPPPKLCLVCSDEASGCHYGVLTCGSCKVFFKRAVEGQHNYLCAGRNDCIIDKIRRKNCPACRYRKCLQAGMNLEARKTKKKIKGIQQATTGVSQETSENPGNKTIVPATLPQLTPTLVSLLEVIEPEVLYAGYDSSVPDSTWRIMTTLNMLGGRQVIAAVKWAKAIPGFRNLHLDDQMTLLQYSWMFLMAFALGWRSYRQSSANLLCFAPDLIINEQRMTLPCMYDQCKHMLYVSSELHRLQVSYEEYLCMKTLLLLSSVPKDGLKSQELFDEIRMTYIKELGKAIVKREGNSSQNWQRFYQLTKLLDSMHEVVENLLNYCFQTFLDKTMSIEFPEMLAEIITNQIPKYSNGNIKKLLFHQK
Put plainly: Binding affinity to glucocorticoid receptor (unknown origin) by TR-FRET assay.

Assay [3] deals with BMMSC. Put plainly: Induction of adipogenesis in human BMMSC cells assessed as increase in HMGCS2 mRNA at 10 uM incubated for 3 days by qRT-PCR analysis. The format is functional, cell-based. The conditions noted are these: time 3.0 day.
Assay [4] relates to BMMSC. Put plainly: Induction of adipogenesis in human BMMSC cells assessed as increase in ANGPTL4 mRNA at 10 uM incubated for 3 days by qRT-PCR analysis. The format is functional, cell-based. The note with it: time 3.0 day. In general terms: Real-time PCR tracks product formation cycle by cycle.
The target of assay [5] is T3, Peroxisome proliferator-activated receptor alpha (Homo sapiens, UniProt Q07869).
T3 sequence (Q07869 whole entry): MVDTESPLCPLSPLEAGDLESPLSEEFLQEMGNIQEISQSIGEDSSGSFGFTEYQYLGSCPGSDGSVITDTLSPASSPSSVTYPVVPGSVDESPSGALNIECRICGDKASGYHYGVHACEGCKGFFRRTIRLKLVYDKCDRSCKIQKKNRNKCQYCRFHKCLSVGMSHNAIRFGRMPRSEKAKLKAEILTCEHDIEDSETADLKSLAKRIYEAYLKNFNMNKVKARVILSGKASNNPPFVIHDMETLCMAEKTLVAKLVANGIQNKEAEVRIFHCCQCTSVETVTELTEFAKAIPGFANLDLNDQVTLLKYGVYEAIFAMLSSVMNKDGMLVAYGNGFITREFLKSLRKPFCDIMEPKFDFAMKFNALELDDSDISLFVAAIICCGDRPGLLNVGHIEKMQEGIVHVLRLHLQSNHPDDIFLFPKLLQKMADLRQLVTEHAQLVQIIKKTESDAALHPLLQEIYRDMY
Put plainly: Binding affinity to PPARalpha (unknown origin) by TR-FRET assay. A general note: Time-resolved FRET reads energy transfer from a long-lived donor to a nearby acceptor.

Assay [6] deals with BMMSC. Put plainly: Induction of adipogenesis in human BMMSC cells assessed as increase in adiponectin secretion incubated for 5 days by ELISA. The conditions noted are these: time 5.0 day. The format is functional, cell-based.
Assay [7] has as its target T4, Peroxisome proliferator-activated receptor delta (Homo sapiens, UniProt Q03181).
T4 sequence (Q03181 whole entry): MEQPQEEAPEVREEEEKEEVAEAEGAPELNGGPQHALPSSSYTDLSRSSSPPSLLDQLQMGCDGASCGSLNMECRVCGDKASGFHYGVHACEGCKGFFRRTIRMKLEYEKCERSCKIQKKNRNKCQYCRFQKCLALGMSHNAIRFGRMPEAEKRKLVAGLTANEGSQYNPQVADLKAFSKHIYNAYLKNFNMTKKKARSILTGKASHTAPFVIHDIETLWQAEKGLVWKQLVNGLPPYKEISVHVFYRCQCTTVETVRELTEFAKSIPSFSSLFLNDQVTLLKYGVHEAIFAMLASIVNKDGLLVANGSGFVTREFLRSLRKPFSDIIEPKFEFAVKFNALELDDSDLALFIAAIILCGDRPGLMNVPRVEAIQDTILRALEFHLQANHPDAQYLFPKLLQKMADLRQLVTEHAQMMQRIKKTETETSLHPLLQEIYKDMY
Put plainly: Binding affinity to PPARdelta (unknown origin) by TR-FRET assay.

Assay [8] has as its system BMMSC. Put plainly: Induction of adipogenesis in human BMMSC cells assessed as increase in adiponectin secretion at 10 uM in presence of GW501516 incubated for 5 days by ELISA. The conditions noted are these: time 5.0 day. The format is functional, cell-based.
Assay [9] deals with T5, Oxysterols receptor LXR-alpha (Homo sapiens) (UniProt Q13133).
T5 sequence (whole entry): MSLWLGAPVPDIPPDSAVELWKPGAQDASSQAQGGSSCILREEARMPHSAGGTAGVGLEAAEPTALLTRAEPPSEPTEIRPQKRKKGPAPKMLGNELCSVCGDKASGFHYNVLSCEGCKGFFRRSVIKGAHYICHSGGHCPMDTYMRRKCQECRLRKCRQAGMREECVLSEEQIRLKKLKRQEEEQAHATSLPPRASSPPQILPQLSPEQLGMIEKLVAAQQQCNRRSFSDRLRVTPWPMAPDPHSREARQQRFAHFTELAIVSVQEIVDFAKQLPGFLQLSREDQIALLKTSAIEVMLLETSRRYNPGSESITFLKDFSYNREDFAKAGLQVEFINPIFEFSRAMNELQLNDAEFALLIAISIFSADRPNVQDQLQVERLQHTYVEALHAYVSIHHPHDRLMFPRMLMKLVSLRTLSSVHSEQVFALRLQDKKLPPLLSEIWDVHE
Put plainly: Transactivation of LXRalpha (unknown origin) by TR-FRET assay.

A word on the Ki: it is the dissociation constant of the complex between target and ligand, obtained from inhibition or displacement. Lower therefore signals higher affinity. On to `C=CC(c1ccccc1)c1c(O)cc(O)c2c(=O)cc(-c3ccccc3)oc12` (centres undefined), for which the outcome in [1], in [2] and in assay [9] was inactive. Further, the outcome in the assay on BMMSC [3], in the assay with BMMSC [4] and in the assay with BMMSC [8] was Active. The Ki in assay [5] worked out at 0.96 µM; in [7], 1.18 µM. For the same compound, the Activity entry in the assay on BMMSC [6] is “Dose-dependent effect”.
